{"source": "paper PMC6270814", "about": "“Effects of Ursolic Acid Derivatives on Caco-2 Cells and Their Alleviating Role in Streptozocin-Induced Type 2 Diabetic Rats” (Molecules, 2014)", "key": {"[1]": {"system": "Caco-2 cells", "test": "MTT cytotoxicity assay on Caco-2 cells", "assay_type": "cell-based, Human", "settings": "Homo sapiens, 24 h, mean ± SD, n = 4, read-out: Inhibition Rate %", "protocol": "Human intestinal Caco-2 cells (ATCC, Rockville, MD, USA) were incubated at 37 °C in a humidified atmosphere of 5% CO2 in air. The cells were cultured in Dulbecco’s […] medium (DMEM) with 10% heat-inactivated fetal bovine serum, 1% non-essential amino acids, 1% L-glutamine, 1% penicillin/streptomycin (Gibco Life Technologies, Grand Island, NY, USA). The cells were sub-cultured at confluence by 0.05% trypsin-0.5 mM EDTA treatment before they were applied in the experiment.\nA MTT test was conducted to determine the possible toxicity of UA and its derivatives to Caco-2 cells. Briefly, cells were seeded at a density of 1 × 10^4 cells/mL in a 96-well plate and incubated for 24 h. The next day, cells were incubated with vehicle (0.1% DMSO) and compounds at 100, 50, 25, 12.5 μmol/L for 24 h, and then 5 g/L MTT solution (20 μL) was added for 4 h. Absorbance at 570 nm was measured using a Multimodel Plate Reader (Infinite 200, Tecan, Mannedorf, Switzerland)."}, "[2]": {"system": "STZ-induced diabetic rats", "test": "Body weight and daily food intake of STZ-induced diabetic rats", "assay_type": "in vivo, rat", "protocol": "(§1) Diabetes was induced by a single intraperitoneal injection of streptozotocin (Sigma-Aldrich, St. Louis, MO, USA) at a dose of 65 mg/kg body weight. STZ was dissolved in 0.1 M cold citrate buffer, pH 4.5. Control group were injected with citrate buffer alone. After 7 days for the development of diabetes, plasma glucose levels were determined of each rat. Rats with fasting blood glucose (FBG) range of above 16.7 mmol/L were considered as DM rats and were used for further study.\n(§2) According to the body weight and plasma glucose levels the rats were divided randomly into seven groups with six rats each and treated as follows: • Group I: Normal rats treated with 0.5% CMC-Na (2 mL/200 g body weight). • Group II: Diabetic rats treated with 0.5% CMC-Na. • Group III: Diabetic rats treated with 10 mg/kg of glibenclamide. • Group IV: Diabetic rats treated with 100 mg/kg of compound 1 (UA). • Group V: Diabetic rats treated with 100 mg/kg of compound 10. • Group VI: Diabetic rats treated with 100 mg/kg of compound 11. • Group VII: Diabetic rats treated with 100 mg/kg of compound 12.\n(§3) The treatment was continued daily for 28 days. Blood glucose levels and body weight were measured every week to ascertain the status of diabetes. After 4 weeks of treatment, the animals were fasted for 12 h and sacrificed by cervical dislocation under mild anaesthetization, blood was collected into heparinized tubes and centrifuged at 2,000 rpm for 10 min. Livers and kidneys were removed, washed and homogenized in ice-cold normal saline. This homogenates were centrifuged at 3,000 rpm for 10 min at 4 °C, and the supernatants were collected for the estimate of antioxidant markers."}, "[3]": {"system": "STZ-induced diabetic rats", "test": "Serum biochemical parameters (insulin, total protein, albumin) in STZ-induced diabetic rats", "assay_type": "in vivo, rat", "settings": "4 weeks, compounds 100 mg/kg, glibenclamide 10 mg/kg", "protocol": "as §1, §2, §3\n(§4) Fasting blood glucose levels were estimated on days 0, 7, 14, 28 with the single touch glucometer (Life Scan, Johnson & Johnson Company, New Brunswick, NJ, USA). Serum insulin level was measured by use of a commercial immunoassay kit by enzyme linked immunosorbent assay (Uscn. Life Science Inc., Wuhan, China). Serum total protein, albumin, triglycerides (TG), total cholesterol (TC), high-density lipoprotein cholesterol (HDL-C), and low-density lipoprotein cholesterol (LDL-C) were measured with an automatic biochemical analyzer (Sinnowa D240, Nanjing, China)."}, "[4]": {"system": "STZ-induced diabetic rats", "test": "Fasting blood glucose in STZ-induced diabetic rats, 4 weeks treatment", "assay_type": "in vivo, rat", "protocol": "Adult male albino rats of Sprague-Dawley rats (180–220 g) were obtained from the Guangdong Medical Lab Animal Center, and maintained under standard laboratory conditions in a temperature (25–30 °C) and light-controlled (12-h light/dark cycle) room with 35%–60% humidity. The animals were acclimatized for 10 days before the experiments and provided with rodent chow and water ad libitum. The investigation was conducted in accordance with the Guide for the Care and Use of Laboratory Animals and approved by the institutional Animal Ethics Committee.\nas §1, §2, §3, §4"}}}
{"molecule": "CCC(=O)O[C@H]1CC[C@@]2(C)C(CC[C@]3(C)C2CC=C2C4[C@@H](C)[C@H](C)CC[C@]4(C(=O)O)CC[C@]23C)C1(C)C", "note": "(stereo partly drawn) [Compound 10]", "values": [{"measurement": "inhibition at 100 µM", "setting": "[1]", "value": "7.84 ± 4.15", "unit": "%"}, {"measurement": "daily food intake vs untreated diabetic rats", "setting": "[2]; compounds 100 mg/kg, glibenclamide 10 mg/kg, oral", "value": "reduce daily food intake significantly"}, {"measurement": "body weight vs diabetic control", "setting": "[2]; end of the treatment period, 100 mg/kg", "value": "significant increase"}, {"measurement": "serum albumin level vs diabetic control", "setting": "[3]", "value": "increased significantly"}, {"measurement": "serum insulin level vs diabetic control", "setting": "[3]", "value": "increased significantly"}, {"measurement": "serum total protein level vs diabetic control", "setting": "[3]", "value": "increased significantly"}, {"measurement": "Fasting Blood Glucose Level, Week 0", "setting": "[4]; STZ diabetic rats, Week 0 (before treatment), compounds 100 mg/kg, glibenclamide 10 mg/kg, n = 6", "value": "320.40 ± 12.96", "unit": "mg/dL"}, {"measurement": "Fasting Blood Glucose Level, Week 1", "setting": "[4]; STZ diabetic rats, Week 1, compounds 100 mg/kg, glibenclamide 10 mg/kg daily, n = 6", "value": "270.00 ± 16.74", "unit": "mg/dL"}, {"measurement": "Fasting Blood Glucose Level, Week 2", "setting": "[4]; STZ diabetic rats, Week 2, compounds 100 mg/kg, glibenclamide 10 mg/kg daily, n = 6", "value": "286.20 ± 18.90", "unit": "mg/dL"}, {"measurement": "Fasting Blood Glucose Level, Week 3", "setting": "[4]; STZ diabetic rats, Week 3, compounds 100 mg/kg, glibenclamide 10 mg/kg daily, n = 6", "value": "234.00 ± 14.58", "unit": "mg/dL"}, {"measurement": "Fasting Blood Glucose Level, Week 4", "setting": "[4]; STZ diabetic rats, Week 4, compounds 100 mg/kg, glibenclamide 10 mg/kg daily, n = 6", "value": "225.00 ± 11.70", "unit": "mg/dL"}, {"measurement": "decrease in blood glucose levels as compared with diabetic control", "setting": "[4]; end of the 4 week treatment, compound 10 100 mg/kg, glibenclamide 10 mg/kg", "value": 49.6, "unit": "%"}]}
